Reference: PMC6657668, “Porcine Beta-Defensin 2 Provides Protection Against Bacterial Infection by a Direct Bactericidal Activity and Alleviates Inflammation via Interference With the TLR4/NF-κB Pathway” (Frontiers in Immunology, 2019)
Where a SMILES comes first, the peptide text is derived from it.

How the values were obtained:
[1] = assay type: binding, Escherichia coli O55:B5; details: ITC, 25°C; PBD-2 0.75 mM in syringe, LPS in cell (0.010 to 0.050 mM; Figure S6: 0.050 mM)
[2] = assay type: biochemical, Escherichia coli O55:B5; details: PBD-2 1, 5, and 10 μg/ml mixed with LPS, 37°C, 10 min; n = 6
[3] = parameters: method as in 2 sources, one per row (each row's own in cited_ref): ref [13] = [13]; PMID 27383796; doi:10.5713/ajas.16.0207; 13. Xu J Zhong F Zhang Y Zhang J Huo S Lin H . Construction of Bacillus subtilis strain engineered for expression of porcine beta-defensin-2/cecropin P1 fusion antimicrobial peptides and its growth-pr ||| ref [15] = [15]; PMID 26707031; doi:10.1111/asj.12540; 15. Tang Z Xu L Shi B Deng H Lai X Liu J . Oral administration of synthetic porcine beta-defensin-2 improves growth performance and cecal microbial flora and down-regulates the expression of intestina; details: cited from earlier work
S. Typhimurium [4] = test: Spleen and caecum weight ratios of mice infected with S. Typhimurium; details: PBD-2 expressed in TG mice; oral 2.5 × 10^8 CFU; legend: 24 h post-infection; WT n = 9, TG n = 8
Method: (§1) Four infection experiments were conducted to determine the resistance to S. Typhimurium of the TG mice. For body weight measurements, 7 WT and 7 TG mice were orally administered with 2.5 × 10^8 CFU of S. Typhimurium, and the body weight of each mouse was measured on days 1, 2, 3, 4, and 5 after infection. For the detection of the tissue weight ratios, bacterial loads in tissues and tissue lesions after S. Typhimurium infection, 9 WT and 8 TG mice were orally administered with 2.5 × 10^8 CFU of S. Typhimurium. The spleen, caecum and body weights of the mice were weighed at 24 h post-infection. The bacterial loads in the tissues were also measured ([26]). The spleen and caecum were weighed and homogenized in cold PBS at a ratio of 4 ml per gram of tissue and coated plates. The bacterial numbers in the homogenates were counted by serially diluting the homogenates and spreading on plates. Caeca were harvested for histopathological analysis by using the methods described above. The intestinal damage, including epithelial damage, submucosal oedema, and neutrophil aggregation, was observed.

S. Typhimurium [5] = test: Histopathology of caecum of mice infected with S. Typhimurium; details: PBD-2 expressed in TG mice; oral 2.5 × 10^8 CFU; 24 h post-infection; H&E; vs WT
Method: as §1

S. Typhimurium [6] = test: Body weight loss of mice infected with S. Typhimurium; details: PBD-2 expressed in TG mice; oral 2.5 × 10^8 CFU; days 1-5; n = 7; vs WT
Method: as §1

[7] = system: LPS-induced production of cytokines; test: Serum cytokine levels of mice injected with LPS (ELISA); assay type: in vivo, mouse; details: 1 h, n = 6
Method: Six TG mice and six WT mice were separately injected with LPS (16 mg/kg body weight) intraperitoneally. The same number of TG mice and WT mice was injected with 100 μl of sterile PBS as a negative control. The sera from the mice in each group were collected 1 h after the injection to detect cytokines by ELISA.
The WT mice were injected with LPS alone or LPS with PBD-2 (0.5 mg/kg body weight) intraperitoneally (n = 6 each group) to detect the effect of synthetic PBD-2 on inflammation induced by LPS. The sera from the mice in each group were collected 1 h after the injection to detect the cytokines by ELISA.

NF-κB = test: mRNA level of NF-κB in RAW 264.7 cells (RT-PCR); assay type: cell-based, mouse; details: LPS 1 μg/ml with PBD-2 10 μg/mL, 4 h; n = 6
Method: The cDNA of the RAW 264.7 cells treated with LPS (1 μg/ml) alone or together with PBD-2 (10 μg/mL) for 4 h (n = 6 each group) was used as a template by using the primers NF-κB-01 ([…]) and NF-κB-02 ([…]) and the primers GAPDH-01 and GAPDH-02 for the housekeeping gene GAPDH to detect the expression level of NF-κB. The relative expression level of NF-κB is shown as 2^−ΔCt (mean ± SEM), where ΔCt = Ct NF−κB−CtGAPDH. The protocol consisted of 40 replication cycles. The Ct values above 34 cycles were considered non-detectable.

RAW 264.7 cells = test: Cytokine levels of RAW 264.7 cells after treatment with LPS (ELISA), with or without pathway inhibitor; assay type: cell-based, mouse; details: for IL-1β level / IL-6 level / TNF-α level: LPS 1 μg/ml
Method: RAW 264.7 cells and RAW 264.7 cells stably expressing PBD-2 were pre-treated with S. Typhimurium at MOI = 10:1 for 1 h or with LPS (1 μg/ml) for 16 h, washed with PBS twice and incubated with RPMI 1640 that contained PBS or PBD-2 (10 μg/mL) for 16 h. RAW 264.7 cells stably expressing PBD-2 were maintained in RPMI 1640 that contained PBS for 16 h (n = 6 for each group). The expression levels of proinflammatory cytokines in the cell culture supernatant were determined through ELISA in accordance with the manufacturer's instruction.
In the inhibition assay, RAW 264.7 cells were pre-treated with 4 μg/ml NF-κB inhibitor (Celastrol, # ant-cls, InvivoGen®, San Diego, CA, USA) or 1 μg/ml TLR4 inhibitor (CLI-095, # tlrl-cli95, InvivoGen®, San Diego, CA, USA) for 1 h. Subsequently, RAW 264.7 cells were treated with LPS (1 μg/ml) alone or together with PBD-2 (10 μg/mL) for 16 h (n = 6 each group). RAW 264.7 cells treated with PBS were used as control. The levels of the cytokines in the supernatant of the cells were detected through ELISA.

BSA = test: Interaction with BSA (control), far-Western blot; assay type: binding, bovine; details: PBD-2 10 μg/ml, 37°C, 2 h
Method: TLR4 and BSA proteins as a control were subject to SDS-PAGE and electro-transferred onto a PVDF membrane. The PVDF membrane was blocked with 10 μg/ml BSA in PBST at 37°C for 2 h, washed five times with PBST and incubated with PBST that contained 10 μg/ml PBD-2 or 10 μg/ml BSA as a control at 37°C for 2 h. After the membranes were washed, the PVDF membrane was incubated with anti-PBD-2 antisera (with a titer 1:500,000) at 37°C for 2 h and washed five times with PBST. The membrane was then incubated with the secondary antibodies, namely, goat anti-mouse IgG (# AS003, ABclonal®, Wuhan, China), at 37°C for 2 h and washed five times with PBST. Lastly, immune-reactive bands were detected using an ECF Western blot system (Tanon 5200 Multi, Shanghai, China).

[8] = PBD-2 expressed in TG mice, LPS 16 mg/kg i.p., vs WT
[9] = synthetic PBD-2 0.5 mg/kg i.p. with LPS 16 mg/kg, WT mice, vs LPS alone
[10] = PBD-2 expressed by RAW 264.7–PBD-2 cells, n = 6
[11] = synthetic PBD-2 10 μg/mL with LPS 1 μg/ml, 16 h, after CLI-095 1 μg/ml, n = 6
[12] = synthetic PBD-2 10 μg/mL with LPS 1 μg/ml, 16 h, after Celastrol 4 μg/ml, n = 6
[13] = synthetic PBD-2 10 μg/mL, 16 h, n = 6

CC[C@H](C)[C@H](NC(=O)[C@@H]1CSSC[C@@H]2NC(=O)[C@@H]3CCCN3C(=O)[C@H](CO)NC(=O)[C@H](Cc3ccccc3)NC(=O)[C@H](CC(N)=O)NC(=O)[C@@H]3CSSC[C@H](NC(=O)[C@H]([C@@H](C)O)NC(=O)CNC(=O)[C@H](CCC(=O)O)NC(=O)[C@H]([C@@H](C)CC)NC(=O)[C@H](CCCNC(=N)N)NC(=O)[C@H](CC(N)=O)NC(=O)[C@H](Cc4ccccc4)NC(=O)[C@H](CC(C)C)NC(=O)[C@@H]4CCCN4C2=O)C(=O)N[C@@H](Cc2ccc(O)cc2)C(=O)N[C@@H](CO)C(=O)NCC(=O)N[C@@H](CCCCN)C(=O)N[C@@H](C)C(=O)N[C@@H](CCCCN)C(=O)N[C@@H](CSSC[C@H](NC(=O)[C@@H](NC(=O)[C@H](Cc2ccc(O)cc2)NC(=O)[C@H](Cc2c[nH]cn2)NC(=O)[C@@H](N)CC(=O)O)[C@@H](C)CC)C(=O)N[C@@H](C)C(=O)N[C@@H](CCCCN)C(=O)N[C@@H](CCCCN)C(=O)NCC(=O)NCC(=O)N[C@@H]([C@@H](C)O)C(=O)N3)C(=O)N1)C(=O)N[C@@H](CCCNC(=N)N)C(=O)O [PBD-2, Porcine beta-defensin 2] (HELM PEPTIDE1{D.H.Y.I.C.A.K.K.G.G.T.C.N.F.S.P.C.P.L.F.N.R.I.E.G.T.C.Y.S.G.K.A.K.C.C.I.R}$PEPTIDE1,PEPTIDE1,5:R3-34:R3|PEPTIDE1,PEPTIDE1,12:R3-27:R3|PEPTIDE1,PEPTIDE1,17:R3-35:R3$$$V2.0; N-terminus and C-terminus assumed)
binding to LPS [1]: did not bind to LPS
endotoxic activity of LPS [2]: did not affect the endotoxic activity of LPS
growth performance, caecum microbial flora, inflammatory cytokine expression ([3]; oral administration, pigs, ref [15]): improve growth performance and caecum microbial flora and reduce the expression of inflammatory cytokines in pigs
growth and diarrhea in piglets ([3]; ref [13]): promote growth, alleviate diarrhea in piglets
caecum weight ratio (organ weight/body weight), caecal enlargement (S. Typhimurium [4]): the WT mice exhibited more severe splenic atrophy and caecal enlargement compared with the TG mice on day 2 post-infection (p < 0.05)
spleen weight ratio (organ weight/body weight), splenic atrophy (S. Typhimurium [4]): the WT mice exhibited more severe splenic atrophy and caecal enlargement compared with the TG mice on day 2 post-infection (p < 0.05)
intestinal damage of the caecum (epithelial damage and submucosal oedema) (S. Typhimurium [5]): significantly milder intestinal damage (epithelial damage and submucosal oedema)
neutrophil aggregation in the caecum (S. Typhimurium [5]): less neutrophil aggregation compared with that of the WT mice
body weight loss (S. Typhimurium [6]): less degree of body weight loss from day 2 onwards (p < 0.05)
LPS-induced IL-1β in serum [7, 8]: significantly lower in the TG mice than in the WT mice (p < 0.05)
LPS-induced IL-6 in serum [7, 8]: significantly lower in the TG mice than in the WT mice (p < 0.05)
LPS-induced IL-12 in serum [7, 8]: significantly lower in the TG mice than in the WT mice (p < 0.05)
LPS-induced TNF-α in serum [7, 8]: significantly lower in the TG mice than in the WT mice (p < 0.05)
LPS-induced IL-1β in serum [7, 9]: significantly lower levels of secreted TNF-α, IL-6, IL-1β, and IL-12 than those injected with LPS alone (p < 0.05)
LPS-induced IL-6 in serum [7, 9]: significantly lower levels of secreted TNF-α, IL-6, IL-1β, and IL-12 than those injected with LPS alone (p < 0.05)
LPS-induced IL-12 in serum [7, 9]: significantly lower levels of secreted TNF-α, IL-6, IL-1β, and IL-12 than those injected with LPS alone (p < 0.05)
LPS-induced TNF-α in serum [7, 9]: significantly lower levels of secreted TNF-α, IL-6, IL-1β, and IL-12 than those injected with LPS alone (p < 0.05)
mRNA levels of NF-κB after LPS induction (NF-κB): reduce the mRNA levels of NF-κB after LPS induction (p < 0.01)
IL-1β level (RAW 264.7 cells; [10]): significantly reduced in RAW 264.7 cells supplemented with PBD-2 or in the RAW 264.7–PBD-2 cells (p < 0.05)
IL-6 level (RAW 264.7 cells; [10]): significantly reduced in RAW 264.7 cells supplemented with PBD-2 or in the RAW 264.7–PBD-2 cells (p < 0.05)
TNF-α level (RAW 264.7 cells; [10]): significantly reduced in RAW 264.7 cells supplemented with PBD-2 or in the RAW 264.7–PBD-2 cells (p < 0.05)
cytokine secretion, PBD-2 itself (RAW 264.7 cells; PBD-2 without stimulus (Figures 5A–C)): did not affect cytokine secretion
inflammatory responses of RAW 264.7 cells expressing PBD-2 versus supplemented with synthetic PBD-2 (RAW 264.7 cells; S. Typhimurium or LPS (Figures 5A–C)): lower than those of the cells supplemented with synthetic PBD-2
secretion of IL-1β in the presence of TLR4 inhibitor (RAW 264.7 cells; [11]): did not affect the secretion of these cytokines in the presence of TLR4 inhibitor (NS, p > 0.05)
secretion of IL-6 in the presence of TLR4 inhibitor (RAW 264.7 cells; [11]): did not affect the secretion of these cytokines in the presence of TLR4 inhibitor (NS, p > 0.05)
secretion of TNF-α in the presence of TLR4 inhibitor (RAW 264.7 cells; [11]): did not affect the secretion of these cytokines in the presence of TLR4 inhibitor (NS, p > 0.05)
secretion of IL-1β in the presence of NF-κB inhibitor (RAW 264.7 cells; [12]): did not affect the secretion of these cytokines in the presence of NF-κB inhibitor (NS, p > 0.05)
secretion of IL-6 in the presence of NF-κB inhibitor (RAW 264.7 cells; [12]): did not affect the secretion of these cytokines in the presence of NF-κB inhibitor (NS, p > 0.05)
secretion of TNF-α in the presence of NF-κB inhibitor (RAW 264.7 cells; [12]): did not affect the secretion of these cytokines in the presence of NF-κB inhibitor (NS, p > 0.05)
IL-1β level (RAW 264.7 cells; [13]): significantly reduced in RAW 264.7 cells supplemented with PBD-2 or in the RAW 264.7–PBD-2 cells (p < 0.05)
IL-6 level (RAW 264.7 cells; [13]): significantly reduced in RAW 264.7 cells supplemented with PBD-2 or in the RAW 264.7–PBD-2 cells (p < 0.05)
TNF-α level (RAW 264.7 cells; [13]): significantly reduced in RAW 264.7 cells supplemented with PBD-2 or in the RAW 264.7–PBD-2 cells (p < 0.05)
binding to BSA on PVDF membrane (BSA): not to BSA
